The subject of data set [1] is NDM-1-producing Klebsiella pneumoniae 2146. The data set is described as follows: Antibiotic susceptibility test, broth microdilution (CLSI), MIC. The format is cell-based. The conditions noted are these: 35° C., 18 h, read-out: Minimal inhibitory concentration (MIC). As for the experimental part:
(§1) An antibiotic susceptibility test was carried out using the broth microdilution guidelines as stipulated by the Clinical and Laboratory Standards Institute (CLSI). Test organisms were grown in Mueller-Hinton (MH) or Brain Heart Infusion (BHI) broth. Solutions of compounds to be tested were each diluted in 96-well plates (50 μl per well) to various prescribed concentrations with the MH or BHI broth. Final concentrations of the solutions in each well were as follows: 128, 64, 32, 16, 8, 4, 2, 1, 0.5, 0.25, 0.125, 0.06, and 0.03 μg/ml. The culture mediums in the 96-well plates were inoculated with 5×10^5 CFU/ml of the test organisms, and then the organisms were cultured at 35° C. for 18 h.
A general note: Broth dilution looks for growth in wells or tubes with falling amounts of substance.

For data set [2], the system named is Klebsiella pneumoniae ATCC 700603. The data set is described as above. It counts as cell-based. The following applies: ATCC700603, 35° C., 18 h, read-out: Minimal inhibitory concentration (MIC). As for the experimental part: as §1
The next data set concerns E. coli ATCC 25922. The data set is described as above. The conditions noted are these: Escherichia coli, ATCC25922, 35° C., 18 h, read-out: Minimal inhibitory concentration (MIC). The format is cell-based. As for the experimental part: as §1
Data set [3] has as its system Pseudomonas aeruginosa ATCC 27853. Described as above. The following applies: ATCC27853, 35° C., 18 h, read-out: Minimal inhibitory concentration (MIC). It counts as cell-based. As for the experimental part: as §1
For data set [4], the system named is Enterobacter aerogenes ATCC 13048. The description is as above. The format is cell-based. The conditions noted are these: Klebsiella aerogenes, ATCC13048, 35° C., 18 h, read-out: Minimal inhibitory concentration (MIC). As for the experimental part: as §1
Data set [5] concerns Enterobacter cloacae ATCC 43560. The data set is described as above. It counts as cell-based. The following applies: ATCC43560, 35° C., 18 h, read-out: Minimal inhibitory concentration (MIC). The method, then:
as §1

Data set [6] in a line: Experiments of toxicity in mice, tail vein injection. It counts as in vivo. The conditions noted are these: both sexes, ICR, mouse, in vivo. The method, then: (§2) ICR mice of either sex weighing between 18-22 g were randomized into groups of 3 mice per group. […] The number of mice that died and the time of death were recorded. […] Tails were removed from the mice that were not dead from the injection and from the normal mice that were not given any of the compounds, and were then fixed in paraformaldehyde. Tail vessels were observed by HE staining to determine whether or not a lesion existed.

For a further data set, the system named is ICR mice. Described as above. The format is in vivo. The following applies: for Toxicity/yes or no: ICR mice, tail vein injection; for Mortality rate / Number of deaths / Time of death: both, ICR, mouse, in vivo. The method, then:
as §2

≈ marks a conversion by molar mass, not a printed value.

With `CO[C@H]1CCC[C@@H]1C#CC#Cc1ccc(C(=O)N[C@H](C(=O)NO)C(C)(C)N)cc1` [I-1, N—((S)-3-amino-1-(hydroxyamino)-3-methyl-1-oxobutan-2-yl)-4-(((1R,2S)-2-methoxycyclopentyl)butan-1,3-diyne-1-yl)benzamide], the MIC in data set [1] stood at 2 µg/mL (≈ 5.03 µM); in data set [2], 2 µg/mL (≈ 5.03 µM); in the data set with E. coli ATCC 25922 it was 0.125 µg/mL (≈ 0.314 µM); in data set [3] it was 0.5 µg/mL (≈ 1.26 µM); in data set [4], 1 µg/mL (≈ 2.52 µM); in data set [5], 1 µg/mL (≈ 2.52 µM). For the same compound, in data set [6], the MTD was greater than 100 mg/kg. Besides, the Toxicity/yes or no entry is listed as “no” with ICR mice (dose 100 mg/kg), “yes” in the data set with ICR mice (dose 200 mg/kg) and “yes” in the data set on ICR mice (dose 300 mg/kg). For the same compound, the values for the Mortality rate in the data set on ICR mice (100 mg/kg), in the data set with ICR mice (200 mg/kg) and in the data set with ICR mice (300 mg/kg) were 0%, 66% and 100%, respectively. Further, the results for the Number of deaths with ICR mice (100 mg/kg), in the data set with ICR mice (200 mg/kg) and in the data set on ICR mice (300 mg/kg) were 0, 2 and 1, respectively. The Time of death in the data set with ICR mice (200 mg/kg) was 10 to 20 min; in the data set with ICR mice (300 mg/kg), 1 min.
Take `CC(C)(N)[C@H](NC(=O)N1CCN(C#CC#Cc2ccc([N+](=O)[O-])cc2)CC1)C(=O)NO` [I-2, (S)—N-(3-amino-1-(hydroxyamino)-3-methyl-1-oxobutan-2-yl)-4-((4-nitrophenyl)butan-1,3-diyne-1-yl)-piperazin-1-carboxamide]: the MIC in data set [1] turned out to be 2 µg/mL (≈ 4.67 µM); in data set [2], 2 µg/mL (≈ 4.67 µM); in the data set on E. coli ATCC 25922 it was 0.125 µg/mL (≈ 0.292 µM); in data set [3], 0.25 µg/mL (≈ 0.584 µM); in data set [4] it was 2 µg/mL (≈ 4.67 µM); in data set [5], 0.5 µg/mL (≈ 1.17 µM). Also, in data set [6], the MTD is greater than 100 mg/kg. For the same compound, the Toxicity/yes or no result in the data set with ICR mice (dose 100 mg/kg) is “no”; in the data set on ICR mice (dose 200 mg/kg), “yes”; with ICR mice (dose 300 mg/kg) it was “yes”. The Mortality rate with ICR mice (100 mg/kg) was determined as 0%; with ICR mice (200 mg/kg) it was 66%; with ICR mice (300 mg/kg) it was 100%. For the same compound, the Number of deaths in the data set on ICR mice (100 mg/kg) was found to be 0; in the data set on ICR mice (200 mg/kg), 2; in the data set on ICR mice (300 mg/kg) it was 1. Moreover, the Time of death with ICR mice (200 mg/kg) lay in the range of 10 to 15 min; in the data set on ICR mice (300 mg/kg), 0.5 to 1 min.
In the case of `CC(C)(N)[C@H](NC(=O)c1ccc(C#CC#Cc2ccc(CN3CCCCC3)cc2)cc1O)C(=O)NO` [I-3, (S)—N-(3-amino-1-(hydroxyamino)-3-methyl-1-oxobutan-2-yl)-2-hydroxy-4-((4-(piperidin-1-ylmethyl)phenyl)butan-1,3-diyne-1-yl)benzamide], the MIC turned out to be 2 µg/mL (≈ 4.09 µM) in data set [1]; 4 µg/mL (≈ 8.19 µM) in data set [2]; 0.125 µg/mL (≈ 0.256 µM) with E. coli ATCC 25922; 0.5 µg/mL (≈ 1.02 µM) in data set [3]; 2 µg/mL (≈ 4.09 µM) in data set [4]; 1 µg/mL (≈ 2.05 µM) in data set [5]. Besides, the MTD in data set [6] was greater than 100 mg/kg. Further, the values for the Toxicity/yes or no result in the data set on ICR mice (dose 100 mg/kg), with ICR mice (dose 200 mg/kg) and with ICR mice (dose 300 mg/kg) were “no”, “yes” and “yes”, respectively. In addition, the Mortality rate in the data set on ICR mice (100 mg/kg) was 0%; in the data set with ICR mice (200 mg/kg), 66%; in the data set on ICR mice (300 mg/kg) it was 100%. In addition, the figures for the Number of deaths with ICR mice (100 mg/kg), in the data set on ICR mice (200 mg/kg) and in the data set on ICR mice (300 mg/kg) were 0, 2 and 1, respectively. For the same compound, the Time of death in the data set on ICR mice (200 mg/kg) was 10 to 20 min; with ICR mice (300 mg/kg), 1 min.
For `C[C@H]1COc2c(N3CCN(C)CC3)c(F)cc3c(=O)c(C(=O)O)cn1c23` [Levofloxacin, levofloxacin, reference compound], the MIC in data set [1] is greater than 64 µg/mL; in data set [2], 0.5 µg/mL (≈ 1.38 µM); in the data set with E. coli ATCC 25922, no more than 0.25 µg/mL; in data set [3], 1 µg/mL (≈ 2.77 µM); in data set [4], no more than 0.25 µg/mL; in data set [5], no more than 0.25 µg/mL.
